Assay results taken from US8343945B2, “Carriers, formulations, methods for formulating unstable active agents for external application and uses thereof” (Foamix Ltd., priority 2007, dated 2013).
“Also recorded” adds a separate entry of the source.

Columns and labels:
Assay type in all cases: physicochemical
[1] = Minocycline HCl compatibility tests with excipients (colour change, HPLC assay); conditions: for Compatibility with Minocycline HCL: Summary, compatibility tested after the storage for up to 3 weeks
Procedure: About 0.5 g foam or pre-foam formulation is dissolved with diluent (65% phosphate buffer: 35% Acetonitrile (ACN)) in a 25 mL volumetric flask. The sample is shaken […] on an inverted shaker stand for 10 min at room temperature. The resulting suspension is centrifuged for 5 minutes at 4000 rpm. The supernatant is separated by vacuum pump and filtered thereafter through a 0.45 μm PTFE+GL filter. The first few drops of the filtrate are discarded. The resultant clear solution layer is analyzed by HPLC using columnRP-8. The content of MCH is calculated against an MCH standard 0.4 mg/mL (concentration). The content of 4-epiminocycline is calculated against MCH standard 0.02 mg/mL (concentration).
Color is tested by visual observation and in particular by comparison to “Pantone® formula guide solid uncoated” colors. […] Minocycline changes color to orange/greenish with oxidation or complexation. These oxidized colors are not desirable. Colors such as 609U/608U/610U are indicative of degradation by the tetracycline antibiotic.
For convenience the excipients were divided into four different groups (I-IV).
Different compositions of hydrophilic and hydrophobic solvents containing minocycline HCl were prepared by weighing the antibiotic in a glass vial and shaking overnight with each solvent investigated (Group I and II).
Mixtures of Minocycline HCl with solid excipients like titanium dioxide, stearyl alcohol, myristyl alcohol etc were prepared by suspending Minocycline HCl in oil with stirring and then adding the solid ingredient as a powder with stirring at room temperature (Group III an IV).
Oxidation of minocycline after the storage at various temperatures was detected by color change. Assay for content of the active pharmaceutical ingredient (API) and degradation product (4-epiminocycline) was determined in some samples.
A series of experiments were performed to evaluate which mixture of components/ingredients were compatible or incompatible with minocycline. Each component or combinations of components were mixed with either 1.1% or 2.2% Minocycline HCl. The glass vials containing the formulations were wrapped in aluminum—and were subjected to a range of temperatures 25° C.; 30° C.; 40° C.; 50 C; for between one week to about 3 weeks. The best results are shown as “compatible no oxidation”.

[2] = Doxycycline Hyclate compatibility test with excipients; conditions: for Visual inspection after the storage at 25° C.: stored at 25° C. for two weeks; for Visual inspection after the storage at 40° C.: stored at 40° C. for two weeks; for Visual inspection after the storage at 50° C.: stored at 50° C. for two weeks
Procedure: Different compositions of hydrophilic and hydrophobic solvents containing Doxycycline Hyclate (Set I and Set II) and Doxycycline Monohydrate (Set III) were prepared by weighing the antibiotic in a glass vial and shaking overnight with each solvent investigated.
Group II included Doxycycline Hyclate mixed with various vehicles with addition of antioxidants like alpha tocopherol, butylated hydroxytolyene (BHT), ascorbic acid.

[3] = Doxycycline Monohydrate compatibility test with excipients; conditions: for Visual inspection at T-0 / Visual inspection after the storage at 25° C. / Visual inspection after the storage at 40° C. / Visual inspection after the storage at 50° C.: Mixtures of 1.04% w/w of Doxycycline Monohydrate with the ingredient; for Visual inspection after the storage at 25° C.: stored at 25° C. for two weeks; for Visual inspection after the storage at 40° C.: stored at 40° C. for two weeks; for Visual inspection after the storage at 50° C.: stored at 50° C. for two weeks; for Compatibility with Doxycycline Monohydrate: Summary, compatibility tested after the storage for up to 3 weeks; for Compatibility with Doxycycline Monohydrate (text): as summarised in text, 40° and 50° C. for two weeks where stated
Procedure: Different compositions of hydrophilic and hydrophobic solvents containing Doxycycline Hyclate (Set I and Set II) and Doxycycline Monohydrate (Set III) were prepared by weighing the antibiotic in a glass vial and shaking overnight with each solvent investigated. Mixtures of Doxycycline salts 1.04% w/w with solid excipients were prepared in a similar way as for Minocycline HCl.
A similar compatibility test was performed on another form of Doxycycline-Doxycycline Monohydrate. Table 17b and Table 18.

[4] = Summary, compatibility tested after the storage for up to 3 weeks
[5] = Mixtures of 1.04% w/w of Doxycycline Hyclate with the ingredient
[6] = Group II, mixture with 1.1% of Minocycline HCl, 10 days at 40° C.
[7] = Group II, mixture with 1.1% of Minocycline HCl, T-0
[8] = 40° C. and 50° C. for two weeks where stated

Compound: CCCCCCCCCCCCCCO [Myristyl alcohol]
- Compatibility with Minocycline HCL [1]: Yes
- Compatibility with Doxycycline Hyclate [2, 4]: Yes

Compound: Sorbitan Monolaurate
- Compatibility with Minocycline HCL [1]: No
- Visual inspection after the storage at 25° C. [2, 5]: Brown solution
- Visual inspection after the storage at 40° C. [2, 5]: Brown solution
- Visual inspection after the storage at 50° C. [2, 5]: Black solution
- Compatibility with Doxycycline Hyclate [2, 4]: No
- Visual inspection at T-0 [3]: Brown mixture
- Visual inspection after the storage at 25° C. [3]: orange solution
- Visual inspection after the storage at 40° C. [3]: Brown solution
- Visual inspection after the storage at 50° C. [3]: brown solution
- Compatibility with Doxycycline Monohydrate [3]: No

Compound: C[Si]1(C)O[Si](C)(C)O[Si](C)(C)O[Si](C)(C)O[Si](C)(C)O1 [Cyclomethicone 5 NF]
- Compatibility with Minocycline HCL [1]: Yes
- Compatibility with Doxycycline Hyclate [2, 4]: Yes
- Compatibility with Doxycycline Monohydrate [3]: Yes

Compound: Sorbitan Monostearate
- Compatibility with Minocycline HCL [1]: Yes
- Compatibility with Doxycycline Hyclate [2, 4]: Yes

Compound: CO[C@H]1CO[C@H]2[C@@H]1OC[C@H]2OC [Dimethyl Isosorbide]
- Compatibility with Minocycline HCL [1]: No
- Visual inspection at T-0 ([2]; Mixtures of 1.04% w/w of Doxycycline Hyclate with the ingredient, T-0 (two-week study)): yellow solution
- Visual inspection after the storage at 25° C. [2, 5]: Yellow solution
- Visual inspection after the storage at 40° C. [2, 5]: Brownish orange
- Visual inspection after the storage at 50° C. [2, 5]: Orange solution
- Compatibility with Doxycycline Hyclate [2, 4]: No
- Visual inspection at T-0 [3]: yellow solution
- Visual inspection after the storage at 25° C. [3]: orange solution
- Visual inspection after the storage at 40° C. [3]: orange orange
- Visual inspection after the storage at 50° C. [3]: Orange solution
- Compatibility with Doxycycline Monohydrate [3]: No

Compound: CCO [Ethanol 95%]
- Compatibility with Minocycline HCl [1]: changed their colour from yellow to orange
- 4-epiminocycline Assay (% w/w), 10 days at 40° C. [1, 6]: 0.39 % w/w
- Minocycline Assay (% w/w), 10 days at 40° C. [1, 6]: 0.52 % w/w
- 4-epiminocycline Assay (% w/w), T-0 [1, 7]: 0.021 % w/w
- Minocycline Assay (% w/w), T-0 [1, 7]: 0.97 % w/w
- Compatibility with Minocycline HCL [1]: No
- Compatibility with Doxycycline Hyclate [2, 8]: stable
- Compatibility with Doxycycline Hyclate [2, 4]: Yes
- Visual inspection after the storage at 25° C. [3]: Brown solution
- Visual inspection after the storage at 40° C. [3]: Brown solution
- Visual inspection after the storage at 50° C. [3]: Black solution
- Compatibility with Doxycycline Monohydrate [3]: No
- Compatibility with Doxycycline Monohydrate (text) [3]: changed their colour from yellow to orange
- Compatibility with Doxycycline Monohydrate (text) ([3]; listed as ethanol 95%): oxidized

Compound: CCCCCCCCCCC(CO)CCCCCCCC (stereo not drawn) [Octyldodecanol]
- Compatibility with Minocycline HCl [1]: full compatibility; also recorded: compatible
- Compatibility with Minocycline HCL [1]: Yes
- Compatibility with Doxycycline Hyclate [2, 8]: incompatibility
- Compatibility with Doxycycline Hyclate [2, 4]: No
- Compatibility with Doxycycline Monohydrate [3]: No
- Compatibility with Doxycycline Monohydrate (text) [3]: incompatibility

Compound: CC(C)OC(=O)CCCCC(=O)OC(C)C [Diisopropyl adipate]
- Compatibility with Minocycline HCL [1]: Yes
- Compatibility with Doxycycline Hyclate [2, 4]: Yes
- Compatibility with Doxycycline Monohydrate [3]: No

Compound: CCCCCCCC/C=C\CCCCCCCCO [Oleyl alcohol]
- Compatibility with Minocycline HCL [1]: Yes
- Compatibility with Doxycycline Hyclate [2, 4]: Yes

Compound: CC(C)CCCCCCCCCCCCCCC(=O)O [Isostearic Acid]
- Compatibility with Minocycline HCL [1]: No
- Compatibility with Doxycycline Hyclate [2, 4]: Yes

Compound: CCCCCCCCCCCCCCCCCCO [Stearyl alcohol]
- Compatibility with Minocycline HCL [1]: Yes
- Compatibility with Doxycycline Hyclate [2, 4]: Yes
